Measurements from US20230167088A1, “1-PYRAZINYLPYRAZOLYL-3-OXYALKYL ACIDS AND THEIR DERIVATIVES, AND THEIR USE FOR CONTROL OF UNDESIRED PLANT GROWTH” (BAYER AKTIENGESELLSCHAFT, priority 2020, published 2023).

Key:
[1] = system: AVEFA; test: Herbicidal pre-emergence action 2a (greenhouse pots, visual scoring); type: in vivo, Avena fatua; conditions: dosage 320 g/ha, visual scoring after about 3 weeks
Outline: (§1)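 Pre-emergence soil-surface spray: WP/EC, 0.5% additive, 600 l/ha water, 320 and/or 80 g/ha. Greenhouse ~3 wk. Visual % damage vs untreated (100% = plants dead, 0% = like control).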

[2] = system: ECHCG; test: Herbicidal pre-emergence action 2b (doubly sown, 1280 g/ha); type: in vivo, Echinochloa crus-galli; conditions: doubly sown pots, dosage 1280 g/ha, visual scoring after about 3 weeks
Outline: (§2)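 Sandy loam pots, one mono- or dicot species each, double sowing; seeds covered. Aqueous WP/EC spray + 0.5% additive, 600 L/ha, onto cover soil. GH, ~3 wk, visual % vs control.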

[3] = system: MATIN; test: Herbicidal pre-emergence action 2a (greenhouse pots, visual scoring); type: in vivo, Matricaria inodora; conditions: dosage 320 g/ha, visual scoring after about 3 weeks vs untreated controls
Outline: as §1

[4] = system: POAAN; test: Herbicidal post-emergence action 1b (twin sowing, 1280 g/ha); type: in vivo, Poa annua; conditions: dosage 1280 g/ha, visual rating about 3 weeks after treatment
Outline: (§3)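 Compounds, formulated as wettable powders or emulsion concentrates, were applied to foliage of greenhouse-grown weeds at the one-leaf stage with 0.5% additive in 600 L/ha water. Pots held one monocot and one dicot species in sandy loam. Efficacy was scored visually after about 3 weeks versus controls.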

[5] = system: VERPE; test: Herbicidal pre-emergence action 2a (greenhouse pots, visual scoring); type: in vivo, Veronica persica; conditions: dosage 320 g/ha, visual scoring after about 3 weeks vs untreated controls
Outline: as §1

[6] = system: DIGSA; test: Herbicidal post-emergence action 1b (twin sowing, 1280 g/ha); type: in vivo, Digitaria sanguinalis; conditions: dosage 1280 g/ha, visual rating about 3 weeks after treatment
Outline: as §3

[7] = system: ABUTH; test: as above; type: in vivo, Abutilon theophrasti; conditions: dosage 1280 g/ha, visual rating about 3 weeks after treatment
Protocol: [table] b) Seeds of mono- and dicotyledonous weed plants are placed in plastic pots in sandy loam soil (twin sowing with one species each of mono- or dicotyledonous weed plants per pot), covered with soil and cultivated in a greenhouse under controlled growth conditions. 2 to 3 weeks after sowing, the test plants are treated at the one-leaf stage. The compounds of the invention, formulated in the form of wettable powders (WP) or as emulsion concentrates (EC), are applied to the green parts of the plants as aqueous suspension or emulsion with addition of 0.5% additive at a water application rate equivalent to 600 litres per hectare. After the test plants have been kept in the greenhouse under optimum growth conditions for about 3 weeks, the activity of the preparations is rated visually in comparison to untreated controls. For example, 100% activity=the plants have died, 0% activity=like control plants. Tables A16 to A21 below show the effects of selected compounds of the general formula (I) according to Tables 1 and 2 on various harmful plants and at an application rate corresponding to 1280 g/ha, which were obtained by the experimental procedure mentioned above.

[8] = system: MATIN; test: as above; type: in vivo, Matricaria inodora; conditions: dosage 1280 g/ha, visual rating about 3 weeks after treatment
Outline: as §3

[9] = system: MATIN; test: Herbicidal pre-emergence action 2b (doubly sown, 1280 g/ha); type: in vivo, Matricaria inodora; conditions: doubly sown pots, dosage 1280 g/ha, visual scoring after about 3 weeks
Outline: as §2

[10] = system: STEME; test: as above; type: in vivo, Stellaria media; conditions: doubly sown pots, dosage 1280 g/ha, visual scoring after about 3 weeks
Outline: as §2

[11] = system: DIGSA; test: as above; type: in vivo, Digitaria sanguinalis; conditions: doubly sown pots, dosage 1280 g/ha, visual scoring after about 3 weeks
Outline: as §2

[12] = system: POAAN; test: as above; type: in vivo, Poa annua; conditions: doubly sown pots, dosage 1280 g/ha, visual scoring after about 3 weeks
Outline: as §2

[13] = system: STEME; test: Herbicidal post-emergence action 1b (twin sowing, 1280 g/ha); type: in vivo, Stellaria media; conditions: dosage 1280 g/ha, visual rating about 3 weeks after treatment
Outline: as §3

[14] = system: ALOMY; test: Herbicidal post-emergence action 1a (greenhouse pots, visual rating); type: in vivo, Alopecurus myosuroides; conditions: rated visually about 3 weeks after treatment, 100% = plants have died, 0% = like control plants
Outline: (§4)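 Visual scoring versus untreated plants (100% = plants dead, 0% = as control) followed roughly 3 weeks in the greenhouse after treatment. Plants grown in sandy loam pots had been sprayed on green parts at the one-leaf stage, 2–3 weeks post-sowing, with aqueous WP/EC preparations containing 0.5% additive, 600 l/ha, at 320 and/or 80 g/ha.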

[15] = system: AMARE; test: Herbicidal pre-emergence action 2a (greenhouse pots, visual scoring); type: in vivo, Amaranthus retroflexus; conditions: dosage 320 g/ha, visual scoring after about 3 weeks vs untreated controls
Outline: as §1

[16] = system: POLCO; test: as above; type: in vivo, Polygonum convolvulus; conditions: dosage 320 g/ha, visual scoring after about 3 weeks vs untreated controls
Outline: as §1

[17] = system: VIOTR; test: as above; type: in vivo, Viola tricolor; conditions: dosage 320 g/ha, visual scoring after about 3 weeks vs untreated controls
Outline: as §1

[18] = system: PHBPU; test: as above; type: in vivo, Pharbitis purpurea; conditions: dosage 320 g/ha, visual scoring after about 3 weeks vs untreated controls
Description: [table] a) Seeds of monocotyledonous and dicotyledonous weed plants and crop plants are placed in plastic or organic plant pots and covered with soil. The compounds of the invention, formulated in the form of wettable powders (WP) or as emulsion concentrates (EC), are then applied onto the surface of the covering soil as aqueous suspension or emulsion with addition of 0.5% additive at a water application rate of 600 1/ha (converted). After the treatment, the pots are placed in a greenhouse and kept under good growth conditions for the trial plants. After about 3 weeks, the effect of the preparations is scored visually in comparison with untreated controls as percentages. For example, 100% activity=the plants have died, 0% activity=like control plants. Tables B1 to B15 below show the effects of selected compounds of the general formula (I) according to Tables 1 and 2 on various harmful plants and an application rate corresponding to 320 g/ha and/or 80 g/ha, which were obtained by the experimental procedure mentioned above.

[19] = system: SETVI; test: as above; type: in vivo, Setaria viridis; conditions: dosage 320 g/ha, visual scoring after about 3 weeks vs untreated controls
Outline: as §1

[20] = system: ALOMY; test: as above; type: in vivo, Alopecurus myosuroides; conditions: dosage 320 g/ha, visual scoring after about 3 weeks
Outline: as §1

[21] = system: ECHCG; test: as above; type: in vivo, Echinochloa crus-galli; conditions: dosage 320 g/ha, visual scoring after about 3 weeks
Outline: as §1

[22] = system: ECHCG; test: Herbicidal post-emergence action 1b (twin sowing, 1280 g/ha); type: in vivo, Echinochloa crus-galli; conditions: dosage 1280 g/ha, visual rating about 3 weeks after treatment
Outline: as §3

[23] = system: AMARE; test: Herbicidal pre-emergence action 2b (doubly sown, 1280 g/ha); type: in vivo, Amaranthus retroflexus; conditions: doubly sown pots, dosage 1280 g/ha, visual scoring after about 3 weeks
Outline: as §2

[24] = system: PHBPU; test: Herbicidal post-emergence action 1a (greenhouse pots, visual rating); type: in vivo, Pharbitis purpurea; conditions: visual rating about 3 weeks after treatment
Outline: as §4

[25] = system: LOLRI; test: Herbicidal pre-emergence action 2a (greenhouse pots, visual scoring); type: in vivo, Lolium rigidum; conditions: dosage 320 g/ha, visual scoring after about 3 weeks vs untreated controls
Outline: as §1

[26] = system: ECHCG; test: Herbicidal post-emergence action 1a (greenhouse pots, visual rating); type: in vivo, Echinochloa crus-galli; conditions: rated visually about 3 weeks after treatment, 100% = plants have died, 0% = like control plants
Outline: as §4

[27] = system: STEME; test: as above; type: in vivo, Stellaria media; conditions: Dosage 320 g/ha; rated visually about 3 weeks after treatment; 100% = plants have died, 0% = like control plants
Protocol: (§5) [table] a) Seeds of monocotyledonous and dicotyledonous weeds and crop plants are placed in sandy loam in plastic or organic plant pots, covered with soil and cultivated in a greenhouse under controlled growth conditions. 2 to 3 weeks after sowing, the test plants are treated at the one-leaf stage. The compounds of the invention, formulated in the form of wettable powders (WP) or as emulsion concentrates (EC), are then sprayed onto the green parts of the plants as aqueous suspension or emulsion with addition of 0.5% additive at a water application rate of 600 1/ha (converted). After the test plants have been kept in the greenhouse under optimum growth conditions for about 3 weeks, the activity of the preparations is rated visually in comparison to untreated controls. For example, 100% activity=the plants have died, 0% activity=like control plants. Tables A1 to A15 below show the effects of selected compounds of the general formula (I) according to Tables 1 and 2 on various harmful plants and an application rate corresponding to 320 g/ha and/or 80 g/ha, which were obtained by the experimental procedure mentioned above.

[28] = system: DIGSA; test: Herbicidal pre-emergence action 2a (greenhouse pots, visual scoring); type: in vivo, Digitaria sanguinalis; conditions: dosage 320 g/ha, visual scoring after about 3 weeks
Outline: as §1

[29] = system: MATIN; test: Herbicidal post-emergence action 1a (greenhouse pots, visual rating); type: in vivo, Matricaria inodora; conditions: dosage 320 g/ha, visual rating about 3 weeks after treatment
Protocol: as §5

[30] = system: VIOTR; test: as above; type: in vivo, Viola tricolor; conditions: dosage 320 g/ha, visual rating about 3 weeks after treatment
Outline: as §4

[31] = system: VERPE; test: as above; type: in vivo, Veronica persica; conditions: dosage 320 g/ha, visual rating about 3 weeks after treatment
Outline: as §4

[32] = system: AMARE; test: as above; type: in vivo, Amaranthus retroflexus; conditions: dosage 320 g/ha, visual rating about 3 weeks after treatment
Outline: as §4

Row | Compound | Pre-emergence action against AVEFA in % [1] [%] | Pre-emergence action at 1280 g/ha against ECHCG in % [2] [%] | Pre-emergence action against MATIN in % [3] [%] | Post-emergence action at 1280 g/ha against POAAN in % [4] [%] | Pre-emergence action against VERPE in % [5] [%] | Post-emergence action at 1280 g/ha against DIGSA in % [6] [%] | Post-emergence action at 1280 g/ha against ABUTH in % [7] [%] | Post-emergence action at 1280 g/ha against MATIN in % [8] [%] | Pre-emergence action at 1280 g/ha against MATIN in % [9] [%] | Pre-emergence action at 1280 g/ha against STEME in % [10] [%] | Pre-emergence action at 1280 g/ha against DIGSA in % [11] [%] | Pre-emergence action at 1280 g/ha against POAAN in % [12] [%] | Post-emergence action at 1280 g/ha against STEME in % [13] [%] | Post-emergence action against ALOMY in % ([14]; Dosage 80 g/ha) [%] | Pre-emergence action against AMARE in % [15] [%] | Pre-emergence action against VIOTR in % [17] [%] | Pre-emergence action against PHBPU in % [18] [%] | Pre-emergence action against SETVI in % [19] [%] | Post-emergence action at 1280 g/ha against ECHCG in % [22] [%] | Pre-emergence action at 1280 g/ha against AMARE in % [23] [%] | further results
1 | COCCOCCOC(=O)COc1nn(-c2cnccn2)c(-c2ccc(F)nc2)c1Br [Example I-67] | 80 | 100 | 80 | 100 | 90 | 100 | 90 | 100 | 100 | 100 | 100 | 100 | 90 | 90 | 100 | 90 | 80 | 90 | 90 | 100 | Pre-emergence action against POLCO in % [16]: 90%; Pre-emergence action against ALOMY in % [20]: 100%; Pre-emergence action against ECHCG in % [21]: 90%
2 | COCCOC(=O)COc1nn(-c2cnccn2)c(-c2ccc(F)nc2)c1Br [Example I-68] | 90 | 100 | 90 | 100 | 90 | 100 | 100 | 90 | 100 | 100 | 100 | 100 | 100 | 80 | 100 | 90 | 80 | 100 | 100 | 100 | Post-emergence action against PHBPU in % ([24]; dosage 80 g/ha): 80%; Pre-emergence action against ALOMY in % [20]: 100%; Pre-emergence action against ECHCG in % [21]: 90%; Pre-emergence action against LOLRI in % [25]: 80%; Post-emergence action against ECHCG in % ([26]; Dosage 80 g/ha): 80%
3 | CCOC(=O)COc1nn(-c2cnccn2)c(-c2cccc(F)c2)c1Br [Example I-02] | – | 100 | 90 | 90 | 100 | – | – | 90 | 100 | 100 | – | 100 | 90 | – | 100 | – | – | – | 90 | 100 | Post-emergence action against STEME in % [27]: 80%; Pre-emergence action against DIGSA in % [28]: 90%; Post-emergence action against MATIN in % [29]: 80%; Post-emergence action against PHBPU in % ([24]; dosage 320 g/ha): 90%; Post-emergence action against ALOMY in % ([14]; Dosage 320 g/ha): 80%; Post-emergence action against VIOTR in % [30]: 80%; Post-emergence action against VERPE in % [31]: 80%; Post-emergence action against AMARE in % [32]: 80%; Post-emergence action against ECHCG in % ([26]; Dosage 320 g/ha): 80%
